Experimental data taken from ChEMBL document CHEMBL5137054, “Xyloketal B Reverses Nutritional Hepatic Steatosis, Steatohepatitis, and Liver Fibrosis through Activation of the PPARα/PGC1α Signaling Pathway” (J Nat Prod, 2022).
Active and inactive are the calls of the source. The rule behind the calls is not given here.

Legend:
Mus musculus [1] = assay: Upregulation of peroxisomal acyl-coenzyme A oxidase-2 enzyme expression in liver of HFD-induced C57BL/6J mouse model of NAFL administered intraperitoneally from week 7 to week 12 by immunoblotting analysis; format: functional; settings: dose 20-40 mg/kg/day, route ip, time 6.0 weeks, DDE = dose-dependent effect
Mus musculus [2] = assay: Upregulation of Medium-chain specific acyl-CoA dehydrogenase gene transcriptional level in HFD-induced C57BL/6J mouse model of NAFL at 20 to 40 mg/kg/day, ip administered from week 7 to week 12 by qRT-PCR analysis; format: functional, organism-based; settings: dose 20-40 mg/kg/day, time 6.0 weeks
[3] = Toxicity in C57BL/6J mouse assessed as effect on serum AST level at 40 mg/kg, ip; format: organism-based; settings: in vivo
[4] = Toxicity in C57BL/6J mouse assessed as effect on serum ALT level at 40 mg/kg, ip; format: organism-based; settings: in vivo
Mus musculus [5] = assay: Reduction in hepatic steatosis in HFD-induced C57BL/6J mouse model of NAFL assessed as reduction in serum AST level at 20 to 40 mg/kg/day, ip administered from week 7 to week 12; format: functional, organism-based; settings: dose 20-40 mg/kg/day, time 6.0 weeks

- Activity (Mus musculus [1]): Dde
Compound: C[C@H]1CO[C@]2(C)Oc3cc(O)c4c(c3C[C@H]12)O[C@@]1(C)OC[C@H](C)[C@H]1C4
- Activity (Mus musculus [2]): Active
- Activity [3]: Non-Toxic
- Activity [4]: Non-Toxic
- Activity (Mus musculus [5]): Active
